Results from paper PMC9067113 (IUCrJ, 2022).
Read-outs that look alike come from different tables or passages of the source.

Tests used:
natural β-lactoglobulin = natural β-lactoglobulin (Bos taurus, UniProt P02754)
[1] = molecular target: T1, β-lactoglobulin I56F/L39A/M107F (FAF) (Bos taurus, UniProt P02754, I18S/I72F/L17A/L55A/M123F); details: for N, stoichiometry: one set of binding sites model
[2] = molecular target: T2, β-lactoglobulin I56F/L39A/M107W (FAW) (Bos taurus, UniProt P02754, I18S/I72F/L17A/L55A/M123W)
T2 sequence (P02754 17-178 L17A/I18S/L55A/I72F/M123W): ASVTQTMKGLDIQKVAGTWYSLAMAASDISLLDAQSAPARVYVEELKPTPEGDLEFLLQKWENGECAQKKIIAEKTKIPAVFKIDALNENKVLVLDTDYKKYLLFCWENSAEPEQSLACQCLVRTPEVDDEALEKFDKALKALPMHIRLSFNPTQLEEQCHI

[3] = molecular target: T1, β-lactoglobulin I56F/L39A/M107F (FAF); details: 50 mM phosphate buffer pH 7.5
[4] = molecular target: T2, β-lactoglobulin I56F/L39A/M107W (FAW); details: 50 mM phosphate buffer pH 7.5

Sequence of natural β-lactoglobulin (P02754 17-178): as the sequence (P02754 17-178 L17A/I18S/L55A/I72F/M123W) above, with A1L, S2I, A39L, F56I, W107M counted along it
T1 sequence (P02754 17-178 L17A/I18S/L55A/I72F/M123F): as the sequence (P02754 17-178 L17A/I18S/L55A/I72F/M123W) above, with W107F counted along it

SMILES: CNCCCN1c2ccccc2CCc2ccccc21 [DSM, desipramine]
- N, stoichiometry (natural β-lactoglobulin; Natural BLG, pH 7.5, 25 mM HEPES, 150 mM NaCl, 293 K, one set of binding sites model): 0.91 ± 0.08
- TΔS a (natural β-lactoglobulin; Natural BLG, pH 7.5, 293 K): 4.395 kcal/mol
- ΔH a, enthalpy change (natural β-lactoglobulin; Natural BLG, pH 7.5, 293 K): -1.298 ± 0.145 kcal/mol
- ΔS a, entropy change (natural β-lactoglobulin; Natural BLG, pH 7.5, 293 K): 15.0 cal mol^−1 K^−1
- outcome of ITC titration at pH 8.5 (natural β-lactoglobulin; native protein, Tris buffer pH 8.5): insufficient enthalpy change for the calculation of binding parameters
- N, stoichiometry ([1]; pH 7.5, 25 mM HEPES, 150 mM NaCl, 293 K): 0.94 ± 0.06
- TΔS a ([1]; pH 7.5, 293 K): 4.2192 kcal/mol
- ΔH a, enthalpy change ([1]; pH 7.5, 293 K): -1.634 ± 0.133 kcal/mol
- ΔS a, entropy change ([1]; pH 7.5, 293 K): 14.4 cal mol^−1 K^−1
- TΔS a ([1]; pH 8.5, Tris buffer, 293 K): 5.3033 kcal/mol
- ΔS a, entropy change ([1]; pH 8.5, Tris buffer, 293 K): 18.1 cal mol^−1 K^−1
- N, stoichiometry ([1]; pH 8.5, Tris buffer, 293 K): 1.21 ± 0.08
- outcome of ITC titration at pH 8.5 ([2]; Tris buffer pH 8.5): insufficient enthalpy change for the calculation of binding parameters
- N, stoichiometry ([2]; pH 7.5, 25 mM HEPES, 150 mM NaCl, 293 K, one set of binding sites model): 0.92 ± 0.05
- TΔS a ([2]; pH 7.5, 293 K): 4.2485 kcal/mol
- ΔH a, enthalpy change ([2]; pH 7.5, 293 K): -1.792 ± 0.137 kcal/mol
- ΔS a, entropy change ([2]; pH 7.5, 293 K): 14.5 cal mol^−1 K^−1
- stoichiometry (DSM molecule per BLG chain), CD [3]: 1
- stoichiometry (DSM molecule per BLG chain), CD [4]: 1
